Test results as given in patent publication EP0933350A1, “Tricyclic retinoids, methods for their production and use” (LIGAND PHARMACEUTICALS INCORPORATED, priority 1994, dated 1996).

Experiments:
RARα [1] = target: T1, RARα (Homo sapiens, UniProt P10276); assay: co-transfection assay (RAR/RXR agonist activity, luciferase reporter in CV-1 cells); type: cell-based; settings: read-out: RARα Pot
T1 sequence (P10276 1-462): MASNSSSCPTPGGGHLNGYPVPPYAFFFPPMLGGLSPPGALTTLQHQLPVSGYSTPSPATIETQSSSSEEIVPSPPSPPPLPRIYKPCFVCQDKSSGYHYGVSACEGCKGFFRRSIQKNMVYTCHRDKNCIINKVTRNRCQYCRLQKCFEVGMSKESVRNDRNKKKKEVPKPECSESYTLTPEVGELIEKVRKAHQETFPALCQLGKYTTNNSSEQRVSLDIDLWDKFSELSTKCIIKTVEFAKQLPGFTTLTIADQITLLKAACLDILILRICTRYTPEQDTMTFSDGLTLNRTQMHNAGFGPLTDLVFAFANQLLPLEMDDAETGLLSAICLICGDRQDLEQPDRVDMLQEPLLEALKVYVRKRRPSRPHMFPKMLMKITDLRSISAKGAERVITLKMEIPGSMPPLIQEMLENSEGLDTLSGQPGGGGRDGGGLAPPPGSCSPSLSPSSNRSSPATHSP

RXRβ [2] = target: T2, RXRβ (Mus musculus, UniProt P28704); assay: as above; type: cell-based; settings: read-out: RXRβ Pot
T2 sequence (P28704 1-520): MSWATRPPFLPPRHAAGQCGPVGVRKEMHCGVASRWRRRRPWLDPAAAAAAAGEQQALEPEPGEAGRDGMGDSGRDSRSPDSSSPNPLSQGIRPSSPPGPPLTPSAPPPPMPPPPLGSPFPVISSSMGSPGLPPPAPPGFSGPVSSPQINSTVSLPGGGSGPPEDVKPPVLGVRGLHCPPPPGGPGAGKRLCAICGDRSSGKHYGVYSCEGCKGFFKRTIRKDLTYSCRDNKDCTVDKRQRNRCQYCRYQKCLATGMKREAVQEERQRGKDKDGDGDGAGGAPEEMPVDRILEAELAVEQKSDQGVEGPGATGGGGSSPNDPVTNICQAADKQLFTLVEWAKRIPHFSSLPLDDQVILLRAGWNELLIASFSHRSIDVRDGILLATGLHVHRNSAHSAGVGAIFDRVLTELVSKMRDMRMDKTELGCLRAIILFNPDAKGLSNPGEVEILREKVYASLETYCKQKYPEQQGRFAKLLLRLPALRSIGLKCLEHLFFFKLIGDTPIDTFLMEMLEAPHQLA

RARγ [3] = target: T3, RARγ (Homo sapiens, UniProt P13631); assay: as above; type: cell-based; settings: potency = EC50, agonist, 40 hours, read-out: RARγ Pot
T3 sequence (P13631 1-454): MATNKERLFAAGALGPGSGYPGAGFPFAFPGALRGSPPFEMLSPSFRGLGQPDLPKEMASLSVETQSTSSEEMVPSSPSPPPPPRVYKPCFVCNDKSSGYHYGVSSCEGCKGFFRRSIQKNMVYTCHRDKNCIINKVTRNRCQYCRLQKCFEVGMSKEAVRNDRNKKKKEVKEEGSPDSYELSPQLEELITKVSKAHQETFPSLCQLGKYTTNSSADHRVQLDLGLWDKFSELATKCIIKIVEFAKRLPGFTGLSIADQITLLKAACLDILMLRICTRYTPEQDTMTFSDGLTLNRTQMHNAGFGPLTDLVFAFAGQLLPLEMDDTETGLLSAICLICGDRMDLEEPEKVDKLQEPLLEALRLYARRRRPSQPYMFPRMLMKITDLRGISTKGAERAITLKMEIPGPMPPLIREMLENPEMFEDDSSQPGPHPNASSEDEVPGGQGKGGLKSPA

RARβ [4] = target: T4, RARβ (Homo sapiens, UniProt P10826); assay: as above; type: cell-based; settings: potency = EC50, agonist, 40 hours, read-out: RARβ Pot
T4 sequence (P10826 1-448 isoform P10826-2): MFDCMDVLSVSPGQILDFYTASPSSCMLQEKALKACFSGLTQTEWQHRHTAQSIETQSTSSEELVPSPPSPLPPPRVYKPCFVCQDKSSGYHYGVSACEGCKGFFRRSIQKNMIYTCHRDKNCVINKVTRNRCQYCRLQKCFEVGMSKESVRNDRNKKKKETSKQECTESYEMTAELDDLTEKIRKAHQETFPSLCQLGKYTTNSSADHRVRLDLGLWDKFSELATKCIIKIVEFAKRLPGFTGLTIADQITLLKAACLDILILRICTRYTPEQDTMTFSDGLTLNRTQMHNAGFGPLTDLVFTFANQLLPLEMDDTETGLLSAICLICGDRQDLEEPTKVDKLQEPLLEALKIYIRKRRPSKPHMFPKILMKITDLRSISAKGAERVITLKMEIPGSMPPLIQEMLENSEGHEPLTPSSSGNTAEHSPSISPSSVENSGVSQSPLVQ

RXRγ [5] = target: T5, RXRγ (Mus musculus, UniProt P28705); assay: as above; type: cell-based; settings: read-out: RXRγ Pot
T5 sequence (P28705 1-463): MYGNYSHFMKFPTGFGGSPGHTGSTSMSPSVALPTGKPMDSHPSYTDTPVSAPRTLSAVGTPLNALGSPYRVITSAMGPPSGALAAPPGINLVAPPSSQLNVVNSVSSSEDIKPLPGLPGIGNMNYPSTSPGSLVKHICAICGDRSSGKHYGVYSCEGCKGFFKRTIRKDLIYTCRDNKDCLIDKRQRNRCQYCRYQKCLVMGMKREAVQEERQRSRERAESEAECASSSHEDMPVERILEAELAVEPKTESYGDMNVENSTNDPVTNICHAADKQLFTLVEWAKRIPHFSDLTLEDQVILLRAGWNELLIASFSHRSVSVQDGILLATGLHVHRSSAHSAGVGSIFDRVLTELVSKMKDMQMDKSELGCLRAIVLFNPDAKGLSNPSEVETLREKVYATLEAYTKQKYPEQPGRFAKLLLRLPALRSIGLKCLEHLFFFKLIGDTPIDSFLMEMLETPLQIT

RXRα [6] = target: T6, RXRα (Homo sapiens, UniProt P19793); assay: as above; type: cell-based; settings: read-out: RXRα Pot
T6 sequence (P19793 1-462): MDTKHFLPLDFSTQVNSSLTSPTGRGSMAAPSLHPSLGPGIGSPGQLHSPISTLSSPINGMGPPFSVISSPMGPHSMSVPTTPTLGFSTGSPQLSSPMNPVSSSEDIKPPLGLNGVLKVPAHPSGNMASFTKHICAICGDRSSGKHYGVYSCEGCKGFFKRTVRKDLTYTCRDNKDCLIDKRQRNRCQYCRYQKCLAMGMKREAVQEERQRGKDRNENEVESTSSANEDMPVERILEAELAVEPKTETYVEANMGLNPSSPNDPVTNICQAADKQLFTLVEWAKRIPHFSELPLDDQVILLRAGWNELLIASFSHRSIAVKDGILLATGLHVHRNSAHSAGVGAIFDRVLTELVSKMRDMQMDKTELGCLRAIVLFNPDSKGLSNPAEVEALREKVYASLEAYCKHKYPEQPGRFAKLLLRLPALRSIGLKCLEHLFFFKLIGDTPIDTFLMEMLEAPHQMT

RPMI 8226 cell line = assay: viability (tetrazolium dye, mitochondrial function); type: cell-based; settings: Homo sapiens, 96 hours, read-out: MTS IC50
ME 180 cell line = assay: as above; type: cell-based; settings: Homo sapiens, 96 hours, read-out: MTS IC50
AML-193 cell line = assay: as above; type: cell-based; settings: Homo sapiens, 96 hours, read-out: MTS IC50
RARβ [7] = target: T7, RARβ (Homo sapiens, UniProt P10826); assay: competitive binding of tritiated retinoids to retinoid receptors; settings: competition with tritiated retinoid, Cheng-Prussof equation
T7 sequence (P10826 1-455): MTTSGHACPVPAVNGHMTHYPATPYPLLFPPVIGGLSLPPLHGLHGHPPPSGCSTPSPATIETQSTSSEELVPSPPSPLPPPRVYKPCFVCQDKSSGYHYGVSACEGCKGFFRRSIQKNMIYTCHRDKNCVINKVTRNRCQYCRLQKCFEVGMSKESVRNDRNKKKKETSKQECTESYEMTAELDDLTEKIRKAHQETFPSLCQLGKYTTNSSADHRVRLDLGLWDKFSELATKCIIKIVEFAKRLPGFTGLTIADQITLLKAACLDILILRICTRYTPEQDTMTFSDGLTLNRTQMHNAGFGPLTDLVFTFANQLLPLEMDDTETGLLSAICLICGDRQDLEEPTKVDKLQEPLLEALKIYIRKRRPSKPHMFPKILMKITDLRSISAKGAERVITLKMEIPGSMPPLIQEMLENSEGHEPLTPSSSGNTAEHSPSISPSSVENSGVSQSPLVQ

RXRα [8] = target: T6, RXRα; assay: as above; settings: competition with tritiated retinoid, Cheng-Prussof equation
RXRγ [9] = target: T5, RXRγ; assay: as above; settings: competition with tritiated retinoid, Cheng-Prussof equation
RARα [10] = target: T1, RARα; assay: as above; settings: competition with tritiated retinoid, Cheng-Prussof equation
RARγ [11] = target: T3, RARγ; assay: as above; settings: competition with tritiated retinoid, Cheng-Prussof equation
RXRβ [12] = target: T2, RXRβ; assay: as above; settings: competition with tritiated retinoid, Cheng-Prussof equation

SMILES | EC50 (RARα [1]) [µM] | EC50 (RXRβ [2]) [µM] | EC50 (RARγ [3]) [µM] | EC50 (RARβ [4]) [µM] | EC50 (RXRγ [5]) [µM] | EC50 (RXRα [6]) [µM] | IC50 (RPMI 8226 cell line) [µM] | IC50 (ME 180 cell line) [µM] | IC50 (AML-193 cell line) [µM] | Kd (RARβ [7]) [µM] | Kd (RXRα [8]) [µM] | Kd (RXRγ [9]) [µM] | Kd (RARα [10]) [µM] | Kd (RARγ [11]) [µM] | Kd (RXRβ [12]) [µM]
CC(/C=C/CC1CCCc2cc3c(cc21)C(C)(C)CCC3(C)C)=C\C(=O)O (racemic) [Compound 124b, (2E,4E)-3-Methyl-6-(1,2,3,4,5,6,7,8-octahydro-5,5,8,8-tetramethylanthracen-1-yl)hexa-2,4-dienoic acid] | 0.101 | 0.037 | 0.094 | 0.033 | 0.026 | 0.038 | – | – | – | – | – | – | – | – | –
CC1=C(/C=C/C(C)=C/C=C/C(C)=C/C(=O)O)C(C)(C)CCC1 [ATRA, all-trans retinoic acid, reference compound] | – | – | – | – | – | – | 0.756 | 0.89 | 1 | – | – | – | – | – | –
CC(/C=C/C=C1/CCC(C)(C)c2cc3c(cc21)C(C)(C)CCC3(C)C)=C\C(=O)O [Compound 106b, (2E,4E)-3-Methyl-6-[(Z)-1,2,3,4,5,6,7,8-hexahydro-4,4,5,5,8,8-hexamethyl-2H-anthracen-1-ylidene]hexa-2,4-dienoic acid] | 0.084 | 0.052 | 0.014 | 0.02 | 0.127 | > 10 | – | – | – | – | – | – | – | – | –
CC(/C=C/C=C1\CCc2c1ccc1c2C(C)(C)CCC1(C)C)=C\C(=O)O [Compound 135b, (2E,4E)-3-Methyl-6-[(E)-2,3,6,7,8,9-hexahydro-6,6,9,9-tetramethyl-1H-cyclopenta[a]naphthalen-3-ylidene]hexa-2,4-dienoic acid] | 1.17 | 1.98 | 0.047 | 0.053 | 2.53 | 2.78 | – | – | – | – | – | – | – | – | –
CC(/C=C/C(=O)N1CCc2cc3c(cc21)C(C)(C)CCC3(C)C)=C\C(=O)O [Compound 141b, (2E,4E)-3-Methyl-6-oxo-6-[(2,3,5,6,7,8-hexahydro-5,5,8,8-tetramethyl)benzo-[f]-indol-1-yl]hexa-2,4-dienoic acid] | 0.863 | > 10 | 0.012 | 0.032 | 2.93 | > 10 | – | – | – | – | – | – | – | – | –
CC(/C=C/CN1CCCc2c1ccc1c2C(C)(C)CCC1(C)C)=C\C(=O)O [Compound 143b, (2E,4E)-3-Methyl-6-(1,2,3,4,7,8,9,10-octahydro-7,7,10,10-tetramethylbenzo[f]quinolin-4-yl)hexa-2,4-dienoic acid] | > 10 | 0.472 | 1.88 | 0.466 | 0.247 | 0.393 | – | – | – | – | – | – | – | – | –
CCN1CC\C(=C/C=C/C(C)=C/C(=O)O)c2cc3c(cc21)C(C)(C)CCC3(C)C [Compound 147b, (2E,4E)-3-methyl-6-[(E)1-ethyl-6,6,9,9-tetramethyl-2,3,6,7,8,9-hexahydro-1H-benzo[g]quinolin-4-ylidene]hexa-2,4-dienoic acid] | 0.035 | 0.579 | 0.001 | 0.004 | 1.47 | – | – | – | – | 0.004 | 0.433 | 0.724 | 0.006 | 0.008 | 0.548
CC1(C)CCC(C)(C)c2cc3c(cc21)CCC/C3=N\Nc1ccc(C(=O)O)cc1 [Compound 152b, E-4-[N'-(5,5,8,8-tetramethyl-3,4,5,6,7,8-hexahydro-2H-anthracen-1-ylidene)-hydrazino]benzoic acid] | 0.651 | > 10 | 0.032 | 0.008 | > 10 | > 10 | – | – | – | – | – | – | – | – | –
